The values below come from patent US20030161893A1, “PTPase inhibitors and methods of using the same” (priority 2001, published 2003).

For one assay, the system named is NB4 cells. As to the kind of experiment: NB4 cell growth (MTT), cell cycle and Annexin V. It counts as cell-based, human. As for the experimental part:
The NB4 cell line (Lanotte et al., Blood 77, 1080 (1991)) was a gift from Dr. Dan Lindner of the Cleveland Clinic Foundation. […] and U937 cell lines were purchased from American Type Culture Collection (Rockville, Md.). These human […] cell lines were maintained in RPMI 1640 medium supplemented with 10% fetal calf serum (FCS). For cell proliferation assays, cells were cultured at 37° C. in 10% FCS medium containing various amounts of sodium stibogluconate for 6 days. The cell numbers in the cultures were determined by an MTT assay as described previously in Mosmann, J. Imunol. Methods 65, 55 (1983).
The cell cycle was analyzed by flow cytometry after 3 days of culture of NB4 cells in the absence or presence of sodium stibogluconate (250 μg/ml) or ATRA (1 μM). Briefly, the cells were fixed in cold ethanol and incubated for 30 minutes at 4° C. in the dark with a solution of […] propidium iodide, 1 mg/ml RNase and 0.1% NP-40. Analysis was performed immediately after staining using the CELLFIT program (Becton Dickinson, Mountain View, Calif.).
Annexin V staining of exposed membrane phospholipid phosphatidylserine (PS) was done using the Annexin V assay kit (Pharmingen, San Diego, Calif.). Briefly, NB4 cells were cultured in the 10% FCS RPMI 1640 medium in the absence or presence of sodium stibogluconate (250 μg/ml) or ATRA (1 μM) for 3 days. Cells were then washed in PBS twice and stained in binding buffer (10 mM Hepes, pH 7.4; 140 mM NaCl; 2.5 mM CaCl2) containing Annexin V-FITC and propidium iodide for 15 min. The reaction was stopped by adding 10 volumes of binding buffer and analyzed by FACS (Becton Dickinson Facsvantage).

A further assay concerns Baf3 cells. As to the kind of experiment: Induction of cellular protein tyrosine phosphorylation in Baf3 cells (Western blotting). Format: cell-based, murine. The note with it: Baf3 deprived of IL-3; proteins of about 55 and 32 kDa. How it is done:
For induction of cellular protein phosphorylation by sodium stibogluconate or pervanadate, Baf3 cells were incubated in 0.1% FCS-RPMI 1640 medium at 37° C. for 16 hours. The cells were then washed twice in RPMI 1640 medium and incubated with sodium stibogluconate or pervanandate (0.1 mM) for various times prior to termination by lysing cells in cold lysis buffer (50 mM Tris, pH 7.4; 150 mM NaCl; 0.2 mM Na3VO4; 20 mm NaF; 1% Nonidet P-40; 2 mM PMSF; 20 μg/ml of Aprotinin and 1 mM of sodium molybdic acid). To determine the effect of sodium stibogluconate or potassium antimonyl tartrate on IL-3-induced Jak/Stat phosphorylation, Baf3 cells were deprived of the growth factor for 16 hours in 0.1% FCS RPMI 1640 medium and then incubated with or without sodium stibogluconate or potassium antimonyl tartrate for 10 minutes. IL-3 was next added to the cell suspension and incubated for various times. The Cells were then harvested and lysed in cold lysis buffer at 4° C. for 45 minutes. Total cell lysates (TCL) were separated in SDS-PAGE gels, blotted onto nitrocellulose membrane (Schleicher & Schuell), probed with specific antibodies and detected using an enhanced chemiluminescence kit (ECL, Amersham, Arlington Heights, Ill.).

In the next assay the target is T1, Flag-PRL-1 (Homo sapiens, UniProt Q93096).
T1 construct: expressed in transfected cells
T1 sequence (Q93096 whole entry): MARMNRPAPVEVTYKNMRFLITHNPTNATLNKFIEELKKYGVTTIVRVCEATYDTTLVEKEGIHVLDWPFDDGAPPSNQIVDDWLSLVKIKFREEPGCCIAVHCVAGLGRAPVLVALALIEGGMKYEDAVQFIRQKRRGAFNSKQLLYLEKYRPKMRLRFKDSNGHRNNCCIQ
As to the kind of experiment: Immunocomplex PTPase assay, Flag-PRL-1 NIH3T3 transfectants. It counts as cell-based. The note with it: cells treated 5 min. How it is done: Immunocomplex PTPase assays were performed to assess the effects of sodium stibogluconate on intracellular PTPases. Cells were untreated or treated with sodium stibogluconate for 5 minutes, washed with fresh medium and then lysed in cold lysis buffer (50 mM Tris, pH 7.4; 150 mM NaCl; 1% NP40; 2 mM PMSF; 20 ,g/ml of Aprotinin). The lysates were incubated with an anti-Flag antibody in immunoprecipitation assays. The immunocomplexes were collected with protein G sepharose beads (Pharmacia) and washed in cold lysis buffer for 4 times. […] 100 μL of malachite green solution (UBI) was added to each reaction prior to measurement of OD660 to quantify the amounts of free phosphate cleaved by the PTPases from the peptide substrate (Pathak et al., J. Imumol. 167, 3391 (2001)). The remaining 10% contents of individual samples were analyzed by SDS-PAGE/Western blotting to quantify the relative amounts of the phosphatase proteins. […]
The effects of sodium stibogluconate on intracellular PTPases were assessed using NIH3T3 or WM9 transfectants. […]

The subject of assay [1] is PML/RAR-alpha chimeric protein. As to the kind of experiment: PML/RAR-alpha chimeric protein expression in NB4 cells. Format: cell-based, human.

For `O.O.O.O.O.O.O.O.O.O=C([O-])[C@@H]1[O][Sb]2([O-])([O][Sb]34([OH])[O][C@H]([C@H](O)CO)[C@H]([O]3)[C@H](C(=O)[O-])[O]4)[O][C@H]([C@H](O)CO)[C@@H]1[O]2.[Na+].[Na+].[Na+]` [sodium stibogluconate], the “Annexin V staining of NB4 cells” value in the assay on NB4 cells (250 μg/ml, 6 days) is “stained positive by Annexin V”. Besides, the “proliferation of NB4 cells” value in the assay with NB4 cells (12.5-400 μg/ml, MTT) is recorded as “markedly inhibited”. The “cell cycle of NB4 cells” value with NB4 cells (3 days, sodium stibogluconate 250 μg/ml, ATRA 1 μM) is “significant increase of cells at S phase”. Besides, in the assay with Baf3 cells, the “cellular protein tyrosine phosphorylation” value is reported as “induced protein tyrosine phosphorylation”. At Flag-PRL-1, the “PTPase activity of anti-Flag immunocomplexes, Flag-PRL-1” value is on record as “little PTPase activities”. Also, the “expression levels of PML/RAR-alpha chimeric protein” value in assay [1] was “no detectable effect”.
